Active and inactive are the calls of the source. The rule behind the calls is not given here.
Key:
FaDu = experiment: Cytotoxicity against human FADU cells assessed as reduction in cell viability after 96 hrs by SRB assay; assay type: functional, cell-based
A2780 [1] = experiment: Cytotoxicity against human A2780 cells assessed as reduction in cell viability after 96 hrs by SRB assay; assay type: functional, cell-based; conditions: A2780, 96 h
HT-29 [2] = experiment: Cytotoxicity against human HT-29 cells assessed as reduction in cell viability after 96 hrs by SRB assay; assay type: functional, cell-based; conditions: HT-29, 96 h
MCF7 = experiment: Cytotoxicity against human MCF7 cells assessed as reduction in cell viability after 96 hrs by SRB assay; assay type: functional, cell-based; conditions: MCF7, 96 h
SW-1736 = experiment: Cytotoxicity against human SW1736 cells assessed as reduction in cell viability after 96 hrs by SRB assay; assay type: functional, cell-based; conditions: SW-1736, 96 h
NIH3T3 = experiment: Cytotoxicity against mouse NIH/3T3 cells assessed as reduction in cell viability after 96 hrs by SRB assay; assay type: cell-based; conditions: NIH3T3, 96 h
A2780 [3] = experiment: Potency index, ratio of hederagenin EC50 to test compound EC50 for cytotoxicity against human A2780 cells; assay type: functional
A2780 [4] = experiment: Potency index, ratio of acetylated hederagenin EC50 to test compound EC50 for cytotoxicity against human A2780 cells; assay type: functional
A2780 [5] = experiment: Potency index, ratio of betulinic acid EC50 to test compound EC50 for cytotoxicity against human A2780 cells; assay type: functional
HT-29 [6] = experiment: Potency index, ratio of hederagenin EC50 to test compound EC50 for cytotoxicity against human HT-29 cells; assay type: functional
HT-29 [7] = experiment: Potency index, ratio of betulinic acid EC50 to test compound EC50 for cytotoxicity against human HT-29 cells; assay type: functional
HT-29 [8] = experiment: Cytotoxicity against human HT-29 cells assessed as cell membrane permeability at 2.5 to 5 uM after 24 hrs by acridine orange/propidium iodide staining based fluorescence microscopic method; assay type: functional
A2780 [9] = experiment: Cytotoxicity against human A2780 cells assessed as cell membrane permeability at 6 uM after 24 hrs by acridine orange/propidium iodide staining based fluorescence microscopic method; assay type: functional
A2780 [10] = experiment: Induction of apoptosis in human A2780 cells assessed as increase in secondary necrotic cells at 6 uM after 24 hrs by Annexin V-FITC/propidium iodide staining-based flow cytometric analysis; assay type: functional, cell-based

Row | SMILES | EC50 (FaDu) [µM] | EC50 (A2780 [1]) [µM] | EC50 (HT-29 [2]) [µM] | EC50 (MCF7) [µM] | EC50 (SW-1736) [µM] | EC50 (NIH3T3) [µM] | Ratio EC50 (A2780 [3]) | Ratio EC50 (A2780 [4]) | Ratio EC50 (A2780 [5]) | Ratio EC50 (HT-29 [6]) | Ratio EC50 (HT-29 [7]) | Activity (HT-29 [8]) | Activity (A2780 [9]) | Activity (A2780 [10])
1 | COC(=O)CNC(=O)[C@]12CCC(C)(C)C[C@H]1C1=CC[C@@H]3[C@@]4(C)CC[C@H](OC(C)=O)[C@@](C)(COC(C)=O)[C@@H]4CC[C@@]3(C)[C@]1(C)CC2 | 3.1 | 1.7 | 3.7 | 4.5 | 4.8 | 8.4 | – | – | – | – | – | – | – | –
2 | CC1(C)CC[C@]2(C(=O)N3CCCCC3)CC[C@]3(C)C(=CC[C@@H]4[C@@]5(C)CC[C@H](O)[C@@](C)(CO)[C@@H]5CC[C@]43C)[C@@H]2C1 | 20.8 | 18.2 | 18.3 | 7.8 | 19.2 | 18.5 | – | – | – | – | – | – | – | –
3 | CC(=O)OC[C@@]1(C)[C@@H]2CC[C@]3(C)[C@H](CC=C4[C@@H]5CC(C)(C)CC[C@]5(C(=O)N5CCCC5)CC[C@]43C)[C@@]2(C)CC[C@@H]1OC(C)=O | 1.6 | 0.4 | 1.8 | 2.5 | 1.7 | 9.6 | 70 | 29 | 32 | – | – | – | – | –
4 | CC(=O)OC[C@@]1(C)[C@@H]2CC[C@]3(C)[C@H](CC=C4[C@@H]5CC(C)(C)CC[C@]5(C(=O)NCCN5CCOCC5)CC[C@]43C)[C@@]2(C)CC[C@@H]1OC(C)=O | 3.3 | 1.2 | 2.8 | 3.8 | 3.9 | 7.6 | – | – | – | – | – | – | – | –
5 | CC(=O)OC[C@@]1(C)[C@@H]2CC[C@]3(C)[C@H](CC=C4[C@@H]5CC(C)(C)CC[C@]5(C(=O)NCCN5CCCCC5)CC[C@]43C)[C@@]2(C)CC[C@@H]1OC(C)=O | 4.3 | 2.1 | 2.1 | 3.2 | 4.7 | 3.2 | – | – | – | – | – | – | – | –
6 | CC(=O)OC[C@@]1(C)[C@@H]2CC[C@]3(C)[C@H](CC=C4[C@@H]5CC(C)(C)CC[C@]5(C(=O)N5CCCCC5)CC[C@]43C)[C@@]2(C)CC[C@@H]1OC(C)=O | 5.5 | 2.8 | 5.7 | 6.2 | 7.1 | 15.2 | – | – | – | – | – | – | – | –
7 | COC(=O)C(NC(=O)[C@]12CCC(C)(C)C[C@H]1C1=CC[C@@H]3[C@@]4(C)CC[C@H](OC(C)=O)[C@@](C)(COC(C)=O)[C@@H]4CC[C@@]3(C)[C@]1(C)CC2)c1ccccc1 (some centres not stated) | 4.6 | 3.3 | 5.1 | 5.7 | 6.3 | 12.9 | – | – | – | – | – | – | – | –
8 | CC(=O)OC[C@@]1(C)[C@@H]2CC[C@]3(C)[C@H](CC=C4[C@@H]5CC(C)(C)CC[C@]5(C(=O)NCc5cn(Cc6ccccc6Cl)nn5)CC[C@]43C)[C@@]2(C)CC[C@@H]1OC(C)=O | 2.2 | 1.7 | 1.7 | 2.6 | 1.8 | 3.6 | – | – | – | – | – | – | – | –
9 | CC1(C)CC[C@]2(C(=O)N3CCCC3)CC[C@]3(C)C(=CC[C@@H]4[C@@]5(C)CC[C@H](O)[C@@](C)(CO)[C@@H]5CC[C@]43C)[C@@H]2C1 | 2.8 | 3 | 1.2 | – | 3.6 | 2.2 | – | – | – | 30 | 15 | Active | Active | Active
10 | CC(=O)OC[C@@]1(C)[C@@H]2CC[C@]3(C)[C@H](CC=C4[C@@H]5CC(C)(C)CC[C@]5(C(=O)NCCc5ccccn5)CC[C@]43C)[C@@]2(C)CC[C@@H]1OC(C)=O | 2.8 | 1.5 | 3.3 | 3.5 | 3.4 | 7.1 | – | – | – | – | – | – | – | –
11 | CC(=O)OC[C@@]1(C)[C@@H]2CC[C@]3(C)[C@H](CC=C4[C@@H]5CC(C)(C)CC[C@]5(C(=O)NCc5cn(Cc6ccccc6[N+](=O)[O-])nn5)CC[C@]43C)[C@@]2(C)CC[C@@H]1OC(C)=O | 2.8 | 1.6 | 1.9 | 2.7 | 3.8 | 2.1 | – | – | – | – | – | – | – | –
12 | COC(=O)C(NC(=O)[C@]12CCC(C)(C)C[C@H]1C1=CC[C@@H]3[C@@]4(C)CC[C@H](O)[C@@](C)(CO)[C@@H]4CC[C@@]3(C)[C@]1(C)CC2)c1ccccc1 (some centres not stated) | > 30 | > 30 | > 30 | – | > 30 | > 30 | – | – | – | – | – | – | – | –
13 | CC(=O)OC[C@@]1(C)[C@@H]2CC[C@]3(C)[C@H](CC=C4[C@@H]5CC(C)(C)CC[C@]5(C(=O)NCc5cn(Cc6ccccc6Br)nn5)CC[C@]43C)[C@@]2(C)CC[C@@H]1OC(C)=O | 2.5 | 1.7 | 1.9 | 3 | 2.3 | 3.4 | – | – | – | – | – | – | – | –
14 | COC(=O)CNC(=O)[C@]12CCC(C)(C)C[C@H]1C1=CC[C@@H]3[C@@]4(C)CC[C@H](O)[C@@](C)(CO)[C@@H]4CC[C@@]3(C)[C@]1(C)CC2 | > 30 | > 30 | > 30 | – | > 30 | > 30 | – | – | – | – | – | – | – | –
15 | CC1(C)CC[C@]2(C(=O)N3CCNCC3)CC[C@]3(C)C(=CC[C@@H]4[C@@]5(C)CC[C@H](O)[C@@](C)(CO)[C@@H]5CC[C@]43C)[C@@H]2C1 | > 30 | 19.4 | 22.5 | – | > 30 | 17.4 | – | – | – | – | – | – | – | –
16 | CC(=O)OC[C@@]1(C)[C@@H]2CC[C@]3(C)[C@H](CC=C4[C@@H]5CC(C)(C)CC[C@]5(C(=O)O)CC[C@]43C)[C@@]2(C)CC[C@@H]1OC(C)=O | 15.4 | 11.9 | 19 | 9.8 | 17.7 | 9.6 | – | – | – | – | – | – | – | –
17 | CC(=O)OC[C@@]1(C)[C@@H]2CC[C@]3(C)[C@H](CC=C4[C@@H]5CC(C)(C)CC[C@]5(C(=O)NCCN5CCCC5)CC[C@]43C)[C@@]2(C)CC[C@@H]1OC(C)=O | 4 | 1.9 | 1.5 | 2.6 | 3.6 | 2.2 | – | – | – | – | – | – | – | –
18 | CC1(C)CC[C@]2(C(=O)O)CC[C@]3(C)C(=CC[C@@H]4[C@@]5(C)CC[C@H](O)[C@@](C)(CO)[C@@H]5CC[C@]43C)[C@@H]2C1 [HEDERAGENIN] | > 30 | > 30 | > 30 | > 30 | > 30 | > 30 | – | – | – | – | – | – | – | –
19 | CC(=O)OC[C@@]1(C)[C@@H]2CC[C@]3(C)[C@H](CC=C4[C@@H]5CC(C)(C)CC[C@]5(C(=O)N5CCNCC5)CC[C@]43C)[C@@]2(C)CC[C@@H]1OC(C)=O | 5.3 | 1.9 | 6.7 | 6.1 | 9 | 10.8 | – | – | – | – | – | – | – | –
20 | CC(=O)OC[C@@]1(C)[C@@H]2CC[C@]3(C)[C@H](CC=C4[C@@H]5CC(C)(C)CC[C@]5(C(=O)NCCCCN)CC[C@]43C)[C@@]2(C)CC[C@@H]1OC(C)=O | > 30 | > 30 | > 30 | > 30 | > 30 | > 30 | – | – | – | – | – | – | – | –
21 | CC1(C)CC[C@]2(C(=O)NCCCCN)CC[C@]3(C)C(=CC[C@@H]4[C@@]5(C)CC[C@H](O)[C@@](C)(CO)[C@@H]5CC[C@]43C)[C@@H]2C1 | > 30 | 9.7 | 6.1 | > 30 | 12.2 | 7 | – | – | – | – | – | – | – | –
22 | CC(=O)OC[C@@]1(C)[C@@H]2CC[C@]3(C)[C@H](CC=C4[C@@H]5CC(C)(C)CC[C@]5(C(=O)NCc5cn(Cc6ccccc6F)nn5)CC[C@]43C)[C@@]2(C)CC[C@@H]1OC(C)=O | 2.8 | 1.3 | 3 | 2.8 | 4.7 | 6.9 | – | – | – | – | – | – | – | –
23 | C=C(C)[C@@H]1CC[C@]2(C(=O)O)CC[C@]3(C)[C@H](CC[C@@H]4[C@@]5(C)CC[C@H](O)C(C)(C)[C@@H]5CC[C@]43C)[C@@H]12 [BETULINIC ACID] | – | – | – | 12 | – | – | – | – | – | – | – | – | – | –
